13 molecules from PubChem BioAssay (NCI) can be followed below.

Each structure is given as a SMILES string.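 Method: 48-hour compound exposure of cells in 96-well plates, five concentrations, linear interpolation of endpoints. GI50 = concentration required for 50% inhibition of growth. The concentration for full growth arrest is given as TGI.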 A value given as a limit tells only on which side of the number the result lay.

Some test systems named below: SN12C renal; UACC-257 melanoma; KM12 colon; EKVX NSCLC; SNB-19 CNS; SNB-75 CNS; NCI-H226 lung; MOLT-4 leukemia; NCI-H460 lung.
What all share (assay): inhibition of tumour cell growth, NCI panel, 48 h

Turning to `O=S1CSCS1` (stereo not given), the TGI in the assay with SN12C renal, in the assay on UACC-257 melanoma, in the assay with KM12 colon, in the assay with EKVX NSCLC, with SNB-19 CNS and in the assay with SNB-75 CNS was greater than 100 µM each time. The TGI in the assay with NCI-H226 lung and with MOLT-4 leukemia was greater than 100 µM each time.
On to `CC(C)(C)N/N=C(\Cc1occc(=O)c1O)C(=O)Nc1ccc([N+](=O)[O-])cc1[N+](=O)[O-]`, for which the TGI in the assay with SN12C renal, in the assay with UACC-257 melanoma, in the assay with KM12 colon, in the assay with EKVX NSCLC, in the assay on SNB-19 CNS and in the assay with SNB-75 CNS was greater than 100 µM each time. In addition, the TGI in the assay with NCI-H460 lung, in the assay on NCI-H226 lung and with MOLT-4 leukemia was greater than 100 µM throughout.
Consider `Cc1cc(=O)n(-c2ccccc2)c(=O)o1`, for which the TGI in the assay on SN12C renal, in the assay on UACC-257 melanoma, in the assay on KM12 colon, with EKVX NSCLC, in the assay with SNB-19 CNS and in the assay with SNB-75 CNS was greater than 100 µM each time. Also, the TGI in the assay with NCI-H460 lung, with NCI-H226 lung and in the assay on MOLT-4 leukemia was greater than 100 µM throughout.
As for `CC(=O)[CH-]C(=O)c1ccccc1.CC(=O)[CH-]C(=O)c1ccccc1.COc1cccc([O-])c1[O-].[Ti+4]`, the GI50 is 49.1 µM with SN12C renal; greater than 100 µM with UACC-257 melanoma; 33.4 µM in the assay with KM12 colon; 64.3 µM in the assay with SNB-19 CNS; 43.5 µM in the assay with SNB-75 CNS; 52 µM in the assay with NCI-H460 lung. Besides, the results for the GI50 in the assay on NCI-H226 lung and in the assay on MOLT-4 leukemia were 15.9 µM and 33.1 µM, respectively. Further, the TGI in the assay with SN12C renal, in the assay on UACC-257 melanoma, in the assay with KM12 colon, in the assay on SNB-19 CNS, with SNB-75 CNS and in the assay on NCI-H460 lung was greater than 100 µM in each case. Besides, the results for the TGI in the assay with NCI-H226 lung and with MOLT-4 leukemia were 73 µM and greater than 100 µM, respectively.
Turning to `CC(C)N(C(=O)C12C3C4C5C3C1(C(=O)N(C(C)C)C(C)C)C5(C#N)C42)C(C)C` (stereo not given), the TGI in the assay with SN12C renal, with UACC-257 melanoma, in the assay on KM12 colon, in the assay with EKVX NSCLC, in the assay with SNB-19 CNS and in the assay on SNB-75 CNS was greater than 100 µM throughout. The TGI in the assay with NCI-H460 lung, with NCI-H226 lung and in the assay with MOLT-4 leukemia was greater than 100 µM in each case.
For the molecule `N#CNC(N)=NCCO`, the TGI with SN12C renal, in the assay with UACC-257 melanoma, with KM12 colon, with EKVX NSCLC, with SNB-19 CNS and with SNB-75 CNS was greater than 100 µM each time. Further, the TGI in the assay on NCI-H460 lung, in the assay with NCI-H226 lung and in the assay with MOLT-4 leukemia was greater than 100 µM in each case.
With `CC(=O)OCCOCNC(=S)N/N=C/c1ccc2ccccc2n1`, the TGI in the assay on SN12C renal, in the assay on UACC-257 melanoma, with KM12 colon, in the assay on EKVX NSCLC, with SNB-19 CNS and with SNB-75 CNS was greater than 100 µM each time. Moreover, the TGI with NCI-H460 lung, in the assay with NCI-H226 lung and with MOLT-4 leukemia was greater than 100 µM throughout.
Consider `CNC(=S)N/N=C1\CC(c2ccccc2)Oc2ccccc21` (stereo not given), for which the TGI with SN12C renal, with KM12 colon, with EKVX NSCLC, with SNB-19 CNS, with SNB-75 CNS and in the assay on NCI-H460 lung was greater than 100 µM in each case. The TGI with NCI-H226 lung and with MOLT-4 leukemia was greater than 100 µM each time.
`Clc1ccccc1C(n1ncc2ccccc21)n1ncc2ccccc21`: the TGI in the assay with SN12C renal was greater than 100 µM; in the assay with UACC-257 melanoma, greater than 100 µM; in the assay with KM12 colon it was greater than 100 µM; in the assay on SNB-19 CNS, greater than 100 µM; in the assay with SNB-75 CNS, 65.6 µM; with NCI-H460 lung it was greater than 100 µM. Moreover, the TGI with NCI-H226 lung and with MOLT-4 leukemia was greater than 100 µM each time.
Take `[C-]#[O+].[Cl][Sn]([Cl])[Cl].[Cl][Sn]([Cl])[Cl].[Pt].c1ccc([PH+](c2ccccc2)c2ccccc2)cc1.c1ccc([PH+](c2ccccc2)c2ccccc2)cc1`: the GI50 was 56.6 µM in the assay with SN12C renal; 37.7 µM in the assay on UACC-257 melanoma; 42.3 µM in the assay with KM12 colon; 28 µM in the assay with EKVX NSCLC; 34.5 µM in the assay with SNB-19 CNS; greater than 100 µM with SNB-75 CNS. Moreover, the GI50 in the assay with NCI-H460 lung is 33.8 µM. Moreover, the TGI with SN12C renal, with UACC-257 melanoma, with KM12 colon, in the assay with EKVX NSCLC, with SNB-19 CNS and in the assay with SNB-75 CNS was greater than 100 µM in each case. Besides, in the assay on NCI-H460 lung, the TGI is greater than 100 µM.
Turning to `CC1(C)CCC[C@@]2(C)C1C[C@H](O)[C@@]1(C)O[C@@](C)([C@H](O)CO)CCC21` (stereo not given in full), the TGI was greater than 100 µM with SN12C renal; greater than 100 µM with UACC-257 melanoma; greater than 100 µM with KM12 colon; greater than 100 µM with EKVX NSCLC; greater than 100 µM with SNB-19 CNS; 58.9 µM in the assay with SNB-75 CNS. The values for the TGI in the assay with NCI-H460 lung, in the assay on NCI-H226 lung and with MOLT-4 leukemia were greater than 100 µM, greater than 100 µM and 62 µM, respectively.
Turning to `Cc1ccc(C2CC(c3ccc([N+](=O)[O-])cc3)=Nc3ccccc3S2)cc1` (stereo not given), the TGI with SN12C renal was greater than 100 µM; in the assay with UACC-257 melanoma it was greater than 100 µM; with KM12 colon, 75.2 µM; in the assay with EKVX NSCLC, greater than 100 µM; in the assay with SNB-19 CNS it was greater than 100 µM; in the assay on SNB-75 CNS, 82 µM. Moreover, the TGI in the assay on NCI-H460 lung was greater than 100 µM; with NCI-H226 lung it was greater than 100 µM; in the assay on MOLT-4 leukemia it was 69 µM.
As to `O=C(c1ccccc1)C(c1ccccc1)C1(O)C(=O)Nc2ccccc21` (stereo not given), the TGI in the assay with SN12C renal, in the assay on UACC-257 melanoma, with EKVX NSCLC, with SNB-19 CNS, in the assay with SNB-75 CNS and with NCI-H460 lung was greater than 100 µM in each case. Moreover, the TGI in the assay with NCI-H226 lung and with MOLT-4 leukemia was greater than 100 µM in each case.
